Assay results: PubChem BioAssay AID588839 (The Scripps Research Institute Molecular Screening Center, 2011)
Active and inactive are the calls of the source.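 How the source made its calls: active means EC50 at or below 10 µM; inactive means EC50 above 10 µM.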

Biological target: cAMP-dependent protein kinase type I-alpha regulatory subunit (Bos taurus) + cAMP-dependent protein kinase catalytic subunit beta (Mus musculus) (UniProt P00514+P68181)
Assay: PKA-R1A holoenzyme activators, late-stage follow-up, biochemical, fluorescence polarization, powder samples (AID 588839)
Conditions: PKA-R1A dissociation, Cy5-IP20 fluorescence polarization

Row | Compound | EC50
1 | Cc1ccc(COc2ccsc2C(=O)O)cc1 | > 100 µM (inactive)
2 | O=C(O)c1sccc1SCc1ccc(Cl)cc1Cl | > 100 µM (inactive)
3 | COC(=O)c1sc2ncccc2c1OCc1ccc(Cl)cc1Cl | > 100 µM (inactive)
4 | Cc1csc(C(=O)O)c1NC(=O)c1ccc(F)cc1 | > 100 µM (inactive)
5 | COC(=O)c1sc2ncccc2c1OCc1ccccc1Cl | > 100 µM (inactive)
6 | O=C(O)c1sccc1NC(=O)c1c(Cl)cccc1Cl | > 100 µM (inactive)
7 | CC(C)(C)c1ccc(COc2ccsc2C(=O)O)cc1 | > 100 µM (inactive)
8 | O=C(O)c1sc2ncccc2c1OCc1ccccc1 | > 100 µM (inactive)
9 | O=C(O)c1sccc1SCc1ccc(Cl)c(Cl)c1 | > 100 µM (inactive)
